Consider two molecules from paper PMC10123104 (Nucleic Acids Research, 2023).

For the assay, the target named is YbiB (Escherichia coli, UniProt P30177). Put plainly: biochemical. It is filed as binding.

No end group written: not given here.

Sequence of YbiB (P30177 whole entry): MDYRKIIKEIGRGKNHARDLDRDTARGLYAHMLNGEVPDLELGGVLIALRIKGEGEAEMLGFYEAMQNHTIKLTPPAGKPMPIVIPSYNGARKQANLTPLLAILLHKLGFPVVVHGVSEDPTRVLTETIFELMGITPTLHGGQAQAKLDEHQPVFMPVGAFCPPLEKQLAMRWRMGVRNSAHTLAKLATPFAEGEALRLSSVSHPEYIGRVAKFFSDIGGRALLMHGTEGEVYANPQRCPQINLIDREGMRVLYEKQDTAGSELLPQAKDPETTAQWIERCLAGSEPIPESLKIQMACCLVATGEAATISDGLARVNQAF

The molecule `CC[C@H](C)[C@H](NC(=O)[C@H](Cc1ccccc1)NC(=O)[C@H](CCC(=O)O)NC(=O)[C@@H](NC(=O)CNC(=O)[C@H](CCC(=O)O)NC(=O)[C@H](CCC(=O)O)NC(=O)[C@H](CC(=O)O)NC(=O)[C@H](CC(=O)O)NC(=O)[C@H](CCC(=O)O)NC(=O)[C@H](CC(=O)O)NC(=O)[C@H](Cc1c[nH]c2ccccc12)NC(=O)[C@H](CC(=O)O)NC(=O)[C@H](CC(=O)O)NC(=O)[C@H](CC(=O)O)NC(=O)[C@H](Cc1c[nH]c2ccccc12)NC(=O)[C@@H](N)CC(=O)O)C(C)C)C(=O)N[C@@H](Cc1ccc(O)cc1)C(=O)N[C@@H](CCCCN)C(=O)N[C@@H](CCCNC(=N)N)C(=O)O` [peptide5] came in with a stoichiometry n (ITC, Figure 3C isotherm, single binding event) of 0.937 ± 0.008. In turn, LEEIAEEDDEDADDDADEDD [peptide4-AA] registered a Kd of about 10 µM.

Usually Kd stands for the equilibrium constant for the complex coming apart.
